Data on four compounds can be found in patent publication US8840886B2, “Method of treating cancer with DLL4 antagonist and chemotherapeutic agent” (Regeneron Pharmaceuticals, Inc., priority 2009, dated 2014).

Broadly, the TGI is the reduction of tumour growth relative to the control group.

What all share (assay type): in vivo, mouse
For test [1], the system named is human HCT116 tumor cells (CRC). The experiment in a line: HCT116 colorectal xenograft tumor growth, REGN421 with 5-FU (Example 5). The procedure: The effect of anti-Dll4 Ab (REGN421) in combination with 5-FU on tumor growth was evaluated on tumors implanted in humanized Dll4 SCID mice. Each mouse was implanted subcutaneously (sc) with 5×10^6 human HCT116 tumor cells (CRC). After the tumors were established in the mice (tumor size of ˜150 mm^3, 22 days after implantation), tumors were measured and randomized. The mice were then treated with hFc, REGN421, 5-FU or combination of REGN421 and 5-FU. A total of 30 mice were divided into 6 groups (n=5 per cohort). The first group was treated sc with hFc at 2 mg/kg; the second group was treated sc with REGN421 at 2 mg/kg; the third and fourth groups were treated ip with 5-FU at 15 and 25 mg/kg, respectively; the fifth group was treated sc with REGN421 at 2 mg/kg and ip with 5-FU at 15 mg/kg; and the sixth group was treated sc with REGN421 at 2 mg/kg and ip with 5-FU at 25 mg/kg. REGN421 was administered every 3-4 days starting on day 22 and mice received three doses total. 5-FU was administered every 3-4 days starting on day 22 and mice received three doses total.
To assess the effects of REGN421 and 5-FU as single agents or in combination, the changes in tumor size (volume) were measured, beginning three days before the initial REGN421 treatment, and then on the day of each agent treatment (days 22, 26, 29) and thereafter every 3-4 days until tumors reach ˜600 mm^3 in size. In vivo tumor size is calculated using the formula (length×width^2)/2 (FIG. 3 and Table 5).

For test [2], the system named is human VM-Cub1 tumor cells (bladder carcinoma cells). Nature of the test: VM-Cub1 bladder carcinoma xenograft tumor growth, REGN421 with cisplatin (Example 1). The settings on record: for TGI: 4 doses, at day 32; for Euthanized: control cohort euthanized day 32; for TGD: time to 600 mm^3 vs control. The procedure: The effect of anti-Dll4 antibody (REGN421) in combination with cisplatin (platinol, cis-diamminedichloroplatinum) on tumor growth was evaluated on tumors implanted in Severe Combined Immunodeficiency (SCID) mice expressing a humanized Dll4 protein (humanized Dll4 SCID mice). The humanized Dll4 SCID mouse was made by replacing the entire extracellular domain of the mouse Dll4 gene with the corresponding extracellular region of the human Dll4 gene (7 kb) in embryonic stem (ES) cells. Homozygous hDll4 mice were generated and bred into SCID background.
Each mouse was implanted subcutaneously (sc) with 1×10^6 human VM-Cub1 tumor cells (bladder carcinoma cells) plus MATRIGEL™ (BD Biosciences, #354234). After the tumors were established in the mice (tumor size of 150-200 mm^3, approximately 14 days after implantation), tumors were measured, randomized and treated with hFc, REGN421, cisplatin, or combination of REGN421 and cisplatin. A total of 45 mice were divided into nine groups (n=5 per cohort). The first group was treated subcutaneously (sc) with hFc at 2 mg/kg; the second and third groups were treated sc with REGN421 at 0.5 and 2 mg/kg, respectively; the fourth and fifth groups were treated intraperitoneally (ip) with cisplatin at 0.5 and 2 mg/kg, respectively; the sixth group was treated sc with REGN421 at 0.5 mg/kg and ip with cisplatin at 0.5 mg/kg; the seventh group was treated sc with REGN421 at 0.5 mg/kg and ip with cisplatin at 2 mg/kg; the eighth group was treated sc with REGN421 at 2 mg/kg and ip with cisplatin at 0.5 mg/kg; and the ninth group was treated sc with REGN421 at 2 mg/kg and ip with cisplatin at 2 mg/kg. REGN421 was administered every 3-4 days starting on day 14 and mice received three doses total. Cisplatin was administered every 24 hours starting on day 14; mice received four doses total.
To assess the effects of REGN421 and cisplatin as single agents or in combination treatments, the changes in tumor size were recorded. Tumor growth was measured three days before the initial REGN421 treatment, on the day of each REGN421 treatment (days 14, 17 and 21) and thereafter every 3-4 days until tumors reached ˜600 mm^3 in size. In vivo tumor size was calculated using the formula (length×width^2)/2 (FIG. 1 and Table 1).
Tumor Growth Inhibition, TGI, was determined by calculating the difference in tumor size for treated (T) versus vehicle control (C) tumor at the day the control cohort was euthanized (i.e., at day 32); TGI=[1−(Tfinal−Tinitial)/(Cfinal−Cinitial)]×100.
Tumor growth delay, TGD, was assessed as the difference in days between treated (T) versus control (C) tumors when each cohort reached a specified tumor size. The predetermined tumor size for this experiment was 600 mm^3.

In test [3] the test system is human A549 tumor cells (non-small cell lung cancer). The experiment in a line: A549 NSCLC xenograft tumor growth, REGN421 with cisplatin (Example 2). How it is done:
The effect of REGN421 in combination with cisplatin on tumor growth was evaluated on tumors implanted in humanized Dll4 SCID mice, as described above. Each mouse was implanted subcutaneously (sc) with 5×10^6 human A549 tumor cells (non-small cell lung cancer or “NSCLC”). After the tumors were established in the mice (tumor size of 100-150 mm^3, approximately 29 days after implantation), tumors were measured, randomized and treated with hFc, REGN421, cisplatin or combination of REGN421 and cisplatin. A total of 36 mice were divided into 6 groups (n=6 per cohort). The first group was treated sc with hFc at 2 mg/kg; the second group was treated sc with REGN421 at 2 mg/kg; the third and fourth groups were treated ip with cisplatin at 2.5 and 4.5 mg/kg, respectively; the fifth group was treated sc with REGN421 at 2 mg/kg and ip with cisplatin at 2.5 mg/kg; and the sixth group was treated sc with REGN421 at 2 mg/kg and ip with cisplatin at 4.5 mg/kg. REGN421 was administered every 3-4 days starting on day 29 and mice received three doses total. Cisplatin was administered every 24 hours starting on day 29 and mice received two doses total.
To assess the effects of REGN421 and cisplatin as single agents or in combination we measured tumor size (volume), beginning three days before the initial REGN421 treatment, on the day of each agent treatment (days 29, 30, 33, 36) and thereafter every 3-4 days until tumors reached ˜600 mm^3 in size. In vivo tumor size was calculated using the formula (length×width^2)/2.

Test [4] has as its system human MDA-MB-231 breast tumor cells. The experiment in a line: MDA-MB-231 breast tumor growth in SCID mice, REGN577 with docetaxel (Example 4). The note with it: for reduction of tumor growth: at Day 63. The procedure: The effect of anti-Dll4 antibody in combination with docetaxel (TAXOTERE®, sanofi-aventis) on tumor growth was evaluated on tumors implanted in Severe Combined Immunodeficiency (SCID) mice. Each mouse was implanted ‘pseudo-orthotopically’ (subcutaneously into mammary gland #3) with 5×10^6 human MDA-MB-231 breast tumor cells with MATRIGEL™ (BD Biosciences lot #84540). After the tumors were established in the mice (tumor size of ˜150-200 mm^3, approximately 45 days after implantation), mice were treated with hFc, docetaxel, Dll4 antibody, or a combination of docetaxel plus Dll4 antibody. A total of 25 tumor-bearing […] mice were randomized into five groups (N=5 mice per group). The first group was treated subcutaneously with hFc (at 25 mg/kg) and intravenously (iv) with vehicle; the second group was treated with Dll4 antibody REGN577 sc at 5 mg/kg; the third group was treated with docetaxel iv at 4.5 mg/kg; the fourth group was treated with docetaxel iv at 6 mg/kg; the fifth group was treated with docetaxel iv at 6 mg/kg plus REGN577 sc at 5 mg/kg. Docetaxel and/or Dll4 antibody were administered on the same day. Animals were treated 2 times per week and received a total of 3 doses. Starting from the day of initial treatment, body weight and tumors were measured twice a week until the mice are euthanized. Mice were euthanized when tumors reached ˜600 mm^3 in size. Tumor size was calculated using the formula (length×width^2)/2.

Test [5] concerns rat C6 tumor cells (glioblastoma cells). Nature of the test: C6 glioblastoma tumor growth in SCID mice, REGN577 with docetaxel (Example 3). The procedure: The effect of anti-Dll4 antibody in combination with docetaxel (TAXOTERE®) on tumor growth was evaluated on tumors implanted in Severe Combined Immunodeficiency (SCID) mice. Each mouse was implanted subcutaneously (sc) with 1×10^6 rat C6 tumor cells (glioblastoma cells). After the tumors were established (tumor size of ˜100-150 mm^3, approximately 13 days after implantation), the mice were treated with hFc, docetaxel, Dll4 antibody, or a combination of docetaxel plus Dll4 antibody. Since these mice expressed mouse Dll4, the Dll4 Ab used in this experiment was prepared in-house, based on the published sequence (WO 2007/143689), and designated as REGN 577. […] A total of 30 tumor-bearing male mice were randomized into six groups (N=5). […] Starting from the day of initial treatment, body weight and tumors were measured twice a week until the mice were euthanized when tumors reached ˜600 mm^3 in size. Tumor size was calculated using the formula, (length×width^2)/2.

In test [6] the test system is human HCT116 tumor cells. The experiment in a line: HCT116 xenograft tumor growth, REGN421 with irinotecan (Example 6). How it is done: Each mouse was implanted subcutaneously (sc) with 5×10^6 human HCT116 tumor cells. After the tumors were established in the mice (tumor size of ˜150 mm^3, 15 days after implantation), tumors were measured and randomized. The mice were then treated with hFc, REGN421, irinotecan or combination of REGN421 and irinotecan. A total of 30 mice were divided into 6 groups (n=5 per cohort). The first group was treated sc with hFc at 2 mg/kg; the second group was treated sc with REGN421 at 2 mg/kg; the third and fourth groups were treated ip with irinotecan at 7.5 and 25 mg/kg, respectively; the fifth group was treated sc with REGN421 at 2 mg/kg and ip with irinotecan at 7.5 mg/kg; and the sixth group was treated sc with REGN421 at 2 mg/kg and ip with irinotecan at 25 mg/kg. REGN421 was administered every 3-4 days starting on day 15 and mice received three doses total. Irinotecan was administered every 3-4 days starting on day 15 and mice received three doses total.
To assess the effects of REGN421 and irinotecan as single agents or in combination treatments, the changes in tumor size (volume) are measured, starting three days before the initial REGN421 treatment, and then on the day of each agent treatment (days 15, 19, 22) and thereafter every 3-4 days until tumors reach ˜600 mm^3 in size. In vivo tumor size is calculated using the formula (length×width^2)/2.

[7] abbreviates: docetaxel 4.5 mg/kg iv (13.5 mg/kg total dose).
Where [8] appears, read: docetaxel 6 mg/kg iv (18 mg/kg total dose).

As for `O=c1[nH]cc(F)c(=O)[nH]1` [5-FU, 5-fluorouracil], the TGD is listed as 4 days in test [1] (5-FU 15 mg/kg ip (45 mg/kg total dose)) and 2 days in test [1] (5-FU 25 mg/kg ip (75 mg/kg total dose)).
As to `N.N.[Cl][Pt][Cl]` [Cisplatin, cis-diamminedichloroplatinum], the tumour growth inhibition (TGI) in test [2] (cisplatin 0.5 mg/kg/dose ip) is on record as 60.7%; in test [2] (cisplatin 0.5 mg/kg/dose ip, listed as cisplatin), 61%; in test [2] (cisplatin 2 mg/kg/dose ip), 53.8%; in test [2] (cisplatin 2 mg/kg/dose ip, listed as cisplatin) it was 54%. The Euthanized is 45 days in test [2] (cisplatin 0.5 mg/kg/dose ip) and 41 days in test [2] (cisplatin 2 mg/kg/dose ip). In addition, the TGD in test [2] (cisplatin 0.5 mg/kg/dose ip) amounted to 13 days; in test [2] (cisplatin 2 mg/kg/dose ip) it was 9 days; in test [3] (cisplatin 2.5 mg/kg ip (5 mg/kg total dose)), 4 days; in test [3] (cisplatin 4.5 mg/kg ip (9 mg/kg total dose)) it was 11 days.
On to `CC(=O)O[C@@]12CO[C@@H]1C[C@H](O)[C@@]1(C)C(=O)[C@H](O)C3=C(C)[C@@H](OC(=O)[C@H](O)[C@@H](NC(=O)OC(C)(C)C)c4ccccc4)C[C@@](O)([C@@H](OC(=O)c4ccccc4)[C@H]21)C3(C)C` [Docetaxel, docetaxel], for which the TGD is recorded as 4 days in test [4] (setting [7]), 4 days in test [4] (setting [8]), 6 days in test [5] (setting [7]) and 7 days in test [5] (setting [8]). The “reduction of tumor growth” value in test [4] (docetaxel 4.5 mg/kg iv) is 37%; in test [4] (docetaxel 6 mg/kg iv) it was 52%.
Take `CCc1c2c(nc3ccc(OC(=O)N4CCC(N5CCCCC5)CC4)cc13)-c1cc3c(c(=O)n1C2)COC(=O)[C@]3(O)CC` [Irinotecan, irinotecan]: the figures for the TGD in test [6] (irinotecan 7.5 mg/kg ip (22.5 mg/kg total dose)) and in test [6] (irinotecan 25 mg/kg ip (75 mg/kg total dose)) were 8 days and 16 days, respectively.
